In US20130267571A1, “TERPENOID ANALOGUES AND USES THEREOF FOR TREATING NEUROLOGICAL CONDITIONS” (NeuroQuest Inc., priority 2010, published 2013):

What was measured:
[1] = system: voltage-gated Na+ channels; test: Sodium (Na+) channel analysis in rat DRG neurons using whole cell patch-clamp; format: cell-based; details: Na+ currents in isolated rat DRG neurons, 3 min in presence of drug, read-out: IC50 range
Method: Isolated DRG neurons were suspended in primary neuron basal media and placed on glass coverslips for incubation in humidified atmosphere of 5% CO2 at 37° C. Coverslips carrying cells was transferred to the bath of an inverted microscope (Zeiss), continuously perfused with oxygenated artificial cerebro-spinal fluid (ACSF) containing (in mM) 124 NaCl, 2.5 KCl, 2 CaCl2, 1 MgSO4, 25 NaHCO3, 1 NaH2PO4, and 10 glucose, at a rate of 2-3 ml/min. Recording of whole-cell membrane currents were made at room temperature. Recording pipette (4-6 MS2) was filled with internal solution containing (in mM) 145 K-gluconate, 5 NaCl, 1 MgCl2, 0.2 EGTA, 10 HEPES, 2 Mg-ATP, 0.1 Na-GTP, and 10 phosphocreatine. To isolate Na^+ currents, DRG neurons were superfused with ACSF containing tetraethylammonium chloride (TEA) 5 mM, cesium chloride (CsCl) 100 μM and cadmium chloride (CdCl) 1 mM, to block potassium and calcium currents. NQ compounds were freshly dissolved in ASCF containing TEA, CsCl and CdCl, prior application via the bath.
For recording Na^+ currents, cells were held at −60 mV before applying a conditioning hyperpolarizing step (50 ms) to −90 mv to reactivate the voltage-gated Na^+ channels. The conditioning pulse was followed by depolarizing (150 ms) test pulses to 50 mV in 10 mV increments. Na^+ currents were recorded in absence, after 3 min in presence of the drugs and after a recovery time of 3 min.

zebrafish embryos = test: Zebrafish response (anaesthesia) assay, touch response/swim behaviour; format: in vivo; details: Danio rerio, 1.5 h; complete anaesthesia (scale 1) in 50% of AB wild type embryos (54 hpf), 90 min at 28° C.
From the text: Briefly, the ZEA assay involves applying essential oils, fractions or individual compounds to developmentally staged zebrafish embryos followed by monitoring of embryonic touch response/swim behaviour and evaluation of the dose response relationship for each substance. Using a four point scale to describe the embryonic behaviours (Table 4), initial analysis focused on monitoring and recording these changes and evaluating the level of bioactivity. The effective concentration to generate complete anaesthesia in 50% of the embryos (EC50), were evaluated as follows:
Compounds are tested on developmentally staged AB “wild type” zebrafish embryos (54 hpf+/−2 hpf) at concentrations ranging between 10 and 400 μM.
Each compound is diluted in a 95% ethanol or DMSO carrier to create a working stock solution from which appropriate dilutions are made in standard embryo E3 media.
1000 μl of each concentration or appropriate carrier control are added to 10 wild type AB embryos in a single well of a 24 well plate, in duplicate.
The embryos are incubated for 90 min at 28° C. (optimal temperature for embryonic growth) in the diluted compound.
A four point scale (Table 4) is used to evaluate the touch response and swim behaviour for each embryo in all wells.
The effectiveness of the compound will be based on its ability to generate complete anaesthesia (scale: 1) in 50% of the embryos at a given concentration (EC50).
The EC50 values are calculated using GraphPad Prism® software to analyze the log (dose) response curves.

TRPV1 = TRPV1 (Homo sapiens, UniProt Q8NER1); test: TRPV1 assay, calcium imaging; format: cell-based
Method: Briefly, cells are seeded into poly-L-lysine-coated, glass-bottom, 24-well plates (1×10^5 cells/well) and incubated overnight under standard culture conditions to achieve the desired confluency. Culture media is removed and cells washed twice with HBS prior to incubation for 15 to 60 min at 37° C. with a labelling mixture comprised of Fura-2-AM and pluronic acid in HBS. Data collection occurs over an eight minute period and follows the same general sequence. Following loading, cells are stimulated by addition of 1 μM of capsaicin agonist for 2 min, after which a concentration series of the test sample (e.g., (0.5, 5, 10, 50 μg/ml) is added and imaging continued for an additional 5 min. Capsazepine (20 μM) serves as a known reference antagonist, while cells that are mock-treated or receive vehicle (e.g., DMSO) alone serve as negative controls. For imaging, plates are placed on the stage of an inverted epifluorescence microscope (e.g. Axiovert 200, Zeiss) equipped with a CCD digital camera (e.g., Axiocam MRm, Zeiss). For each well of the plate, a sequence of image pairs (excitation at 340 nm and 380 nm) are collected to capture intracellular calcium flux. Image sequences are analyzed in Image) (NIH) and average pixel intensities calculated for six representative cells in each test condition to achieve mean fluorescence.

Chain of TRPV1 (Q8NER1 whole entry, species assumed): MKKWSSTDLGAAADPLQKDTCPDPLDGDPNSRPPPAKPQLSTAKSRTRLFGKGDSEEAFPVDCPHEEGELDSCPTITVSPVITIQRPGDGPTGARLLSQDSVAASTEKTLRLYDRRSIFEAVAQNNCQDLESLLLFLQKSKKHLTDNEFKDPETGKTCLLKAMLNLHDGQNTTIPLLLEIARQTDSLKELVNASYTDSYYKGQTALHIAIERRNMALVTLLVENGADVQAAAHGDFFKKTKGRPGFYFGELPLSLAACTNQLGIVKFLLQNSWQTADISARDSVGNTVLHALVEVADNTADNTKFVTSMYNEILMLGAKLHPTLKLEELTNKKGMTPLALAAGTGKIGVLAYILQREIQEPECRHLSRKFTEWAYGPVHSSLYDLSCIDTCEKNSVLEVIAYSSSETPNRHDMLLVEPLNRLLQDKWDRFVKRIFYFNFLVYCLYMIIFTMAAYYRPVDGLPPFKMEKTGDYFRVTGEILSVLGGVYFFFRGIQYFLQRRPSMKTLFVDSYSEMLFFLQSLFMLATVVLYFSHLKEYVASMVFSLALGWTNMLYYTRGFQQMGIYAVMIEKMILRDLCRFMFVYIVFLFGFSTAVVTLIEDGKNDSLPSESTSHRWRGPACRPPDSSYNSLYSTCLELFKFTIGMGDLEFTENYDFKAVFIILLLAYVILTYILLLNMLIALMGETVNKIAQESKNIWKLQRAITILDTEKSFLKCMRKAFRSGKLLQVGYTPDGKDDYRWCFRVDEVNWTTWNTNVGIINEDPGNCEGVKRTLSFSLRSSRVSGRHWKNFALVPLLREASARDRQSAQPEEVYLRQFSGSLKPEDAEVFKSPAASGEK

SMILES	IC50 [1] [µM]	further results
CC(C)=CCC/C(C)=C/C=O [NQ 2983, (E)-3,7-dimethylocta-2,6-dienal]	1000 to 5000	EC50 (zebrafish embryos): 113 µM; IC50 (TRPV1; Ca2+ imaging (Fura-2-AM) after stimulation with 1 μM capsaicin): 493 to 657 µM; IC50 (TRPV1; FIG. 2, Ca2+ imaging in HEK-TRPV cells): 493 µM
CC(C)=CCC/C(C)=C/S(N)(=O)=O [NQ 3063, (E)-2,6-dimethylhepta-1,5-diene-1-sulfonamide]	1000 to 5000	
CC(C)=CCC/C(C)=C/CN(C)C [NQ 2990, (E)-N,N,3,7-tetramethylocta-2,6-dien-1-amine]	1000 to 5000	
CC(C)=CCC/C(C)=C/C(=O)N(C)C [NQ 2988, (E)-N,N,3,7-tetramethylocta-2,6-dienamide]	1000 to 5000	
CC(C)=CCCC(C)=CC(=O)O [NQ 2978, 3,7-dimethyloct-2,6-dienoic acid]	> 10000	EC50 (zebrafish embryos): 71.1 µM
CC(C)=CCCC(C)=Cc1nn[nH]n1 [NQ 3045, 5-(2,6-dimethylhepta-1,5-dien-1-yl)-2H-tetrazole]	1000 to 5000	
CC(C)=CCC/C(C)=C/S(C)(=O)=O [NQ 3047, (E)-2,6-dimethyl-1-(methylsulfonyl)hepta-1,5-diene]	1000 to 5000	
CC(C)=CCC/C(C)=C/C(=O)O [NQ 2984, (E)-3,7-dimethylocta-2,6-dienoic acid]	1000 to 5000	EC50 (zebrafish embryos): > 200 µM
CC(C)=CCC/C(C)=C\C=O [NQ 3000, (Z)-3,7-dimethylocta-2,6-dienal]	5000 to 10000	
CC(C)=CCC/C(C)=C/CS(C)(=O)=O [NQ 3053, (E)-3,7-dimethyl-1-(methylsulfonyl)octa-2,6-diene]	1000 to 5000	
CC(C)=CCC/C(C)=C/CNC(=O)c1ccccc1 [NQ 2982, (E)-N-(3,7-dimethylocta-2,6-dienyl)benzamide]	1000 to 5000	EC50 (zebrafish embryos): 103 µM
CC(C)=CCC/C(C)=C/C(N)Cc1ccccc1 (centres unmarked) [NQ 3089, (E)-4,8-dimethyl-1-phenylnona-3,7-dien-2-amine]	< 100	
CC(C)=CCC/C(C)=C/C[S+](C)[O-] (centres unmarked) [NQ 3054, (E)-3,7-dimethyl-1-(methylsulfinyl)octa-2,6-diene]	1000 to 5000	
CC(C)=CCC/C(C)=C/C(=O)C(F)(F)F [NQ 3066, (E)-1,1,1-trifluoro-4,8-dimethylnona-3,7-dien-2-one]	1000 to 5000	
CC(=O)NC/C=C(\C)CCC=C(C)C [NQ 2985, (E)-N-(3,7-dimethylocta-2,6-dienyl)acetamide]	1000 to 5000	EC50 (zebrafish embryos): 264 µM
COC/C=C(\C)CCC=C(C)C [NQ 2976, (E)-1-methoxy-3,7-dimethylocta-2,6-diene]	1000 to 5000	EC50 (zebrafish embryos): 874 µM
CC(C)=CCC/C(C)=C/[S+](C)[O-] (centres unmarked) [NQ 3057, (E)-2,6-dimethyl-1-(methylsulfinyl)hepta-1,5-diene]	1000 to 5000	
CC(C)=CCC/C(C)=C\C(=O)O [NQ 3001, (Z)-3,7-dimethylocta-2,6-dienoic acid]	> 10000	
CNC/C=C(\C)CCC=C(C)C [NQ 3007, (E)-N,3,7-trimethylocta-2,6-dien-1-amine]	1000 to 5000	
CC(C)=CCC/C(C)=C/CNC(=O)c1ccccc1O [NQ 2987, (E)-N-(3,7-dimethylocta-2,6-dienyl)-2-hydroxybenzamide]	1000 to 5000	EC50 (zebrafish embryos): 134 µM
CC(C)=CCC/C(C)=C\[S+](C)[O-] (centres unmarked) [NQ 3062, (Z)-2,6-dimethyl-1-(methylsulfinyl)hepta-1,5-diene]	1000 to 5000	
CNS(=O)(=O)/C=C(/C)CCC=C(C)C [NQ 3061, (Z)-N,2,6-trimethylhepta-1,5-diene-1-sulfonamide]	100 to 1000	
CC(C)=CCC/C(C)=C/S(=O)(=O)NCC(F)(F)F [NQ 3064, (E)-2,6-dimethyl-N-(2,2,2-trifluoroethyl)hepta-1,5-diene-1-sulfonamide]	1000 to 5000	
CC(C)=CCC/C(C)=C/C(=O)Nc1ccccc1 [NQ 2986, (E)-3,7-dimethyl-N-phenylocta-2,6-dienamide]	5000 to 10000	EC50 (zebrafish embryos): 449 µM
CC(C)=CCC/C(C)=C/C(C)N (centres unmarked) [NQ 3079, (E)-4,8-dimethylnona-3,7-dien-2-amine]	100 to 1000	
CC(C)=CCC/C(C)=C/C(O)C(C)C (centres unmarked) [NQ 3083, (E)-2,5,9-trimethyldeca-4,8-dien-3-ol]	1000 to 5000	
CC(C)=CCC/C(C)=C/COCc1ccccc1 [NQ 2977, (E)-((3,7-dimethylocta-2,6-dienyloxy)methyl)benzene]	1000 to 5000	
CNC(=O)/C=C(\C)CCC=C(C)C [NQ 2991, (E)-N,3,7-trimethylocta-2,6-dienamide]	1000 to 5000	
CNS(=O)(=O)/C=C(\C)CCC=C(C)C [NQ 3060, (E)-N,2,6-trimethylhepta-1,5-diene-1-sulfonamide]	1000 to 5000	

The next lines start with results.

IC50 [1] [µM]	SMILES	further results
< 100	CC(C)=CCC/C(C)=C/C(N)c1ccccc1 (centres unmarked) [NQ 3085, (E)-3,7-dimethyl-1-phenylocta-2,6-dien-1-amine]	
100 to 1000	CC(C)=CCC/C(C)=C\S(=O)(=O)NCC(F)(F)F [NQ 3069, (Z)-2,6-dimethyl-N-(2,2,2-trifluoroethyl)hepta-1,5-diene-1-sulfonamide]	
100 to 1000	CC(C)=CCC/C(C)=C/S(=O)(=O)N(C)C [NQ 3051, (E)-N,N,2,6-tetramethylhepta-1,5-diene-1-sulfonamide]	
< 100	CCC(N)/C=C(\C)CCC=C(C)C (centres unmarked) [NQ 3078, (E)-5,9-dimethyldeca-4,8-dien-3-amine]	
100 to 1000	CC(C)=CCC/C(C)=C/S(=O)(=O)Nc1ccccc1 [NQ 3070, (E)-2,6-dimethyl-N-phenylhepta-1,5-diene-1-sulfonamide]	
< 100	CCCC(N)/C=C(\C)CCC=C(C)C (centres unmarked) [NQ 3081, (E)-6,10-dimethylundeca-5,9-dien-4-amine]	
100 to 1000	CC(C)=CCC/C(C)=C/C(O)C(F)(F)F (centres unmarked) [NQ 3065, (E)-1,1,1-trifluoro-4,8-dimethylnona-3,7-dien-2-ol]	
100 to 1000	CC(C)=CCC/C(C)=C/C(O)(C(F)(F)F)C(F)(F)F [NQ 3067, (E)-1,1,1-trifluoro-4,8-dimethyl-2-(trifluoromethyl)nona-3,7-dien-2-ol]	
100 to 1000	CC(C)=CCC/C(C)=C\S(=O)(=O)N(C)C [NQ 3050, (Z)-N,N,2,6-tetramethylhepta-1,5-diene-1-sulfonamide]	
100 to 1000	CC(C)=CCC/C(C)=C/S(=O)(=O)NCc1ccccc1 [NQ 3071, (E)-N-benzyl-2,6-dimethylhepta-1,5-diene-1-sulfonamide]	
100 to 1000	CC(C)=CCC/C(C)=C/C(N)CCCO (centres unmarked) [NQ 3084, (E)-4-amino-6,10-dimethylundeca-5,9-dien-1-ol]	
< 100	CC(C)=CCC/C(C)=C/CN (single isomer, unassigned) [NQ 2981, (E)-3,7-dimethylocta-2,6-dien-1-amine]	EC50 (zebrafish embryos): 217 µM
100 to 1000	CC(C)=CCC/C(C)=C/C(=O)N(C)O [NQ 3055, (E)-N-hydroxy-N,3,7-trimethylocta-2,6-dienamide]	
< 100	CC(C)=CCC/C(C)=C/C(N)C(C)C (centres unmarked) [NQ 3082, (E)-2,5,9-trimethyldeca-4,8-dien-3-amine]	
100 to 1000	CON(C)C(=O)/C=C(\C)CCC=C(C)C [NQ 3052, (E)-N-methoxy-N,3,7-trimethylocta-2,6-dienamide]	
100 to 1000	CC(C)=CCC/C(C)=C/C(N)=O [NQ 2992, (E)-3,7-dimethylocta-2,6-dienamide]	
